Test results from patent US20230218716A1, “COMPOSITIONS AND METHODS FOR TREATING ATRIAL FIBRILLATION” (Ohio State Innovation Foudation, priority 2020, published 2023).
Structures can show the parent of a compound that is named as a salt.

How the values were obtained:
[1] = test system: Langendorff-perfused mouse hearts; details: VEGF 500 pg/ml, perfused 60 minutes; vehicle 100±9%; n=3 hearts/group
Experimental: (§1) Langendorff preparations: For optical mapping and ex vivo electrocardiography (ECG) studies, hearts were perfused (at 40-55 mm Hg) in a Langendorff configuration with oxygenated, modified Tyrode's solution (containing, in mM: NaCl 140, KCl 5.4, MgCl2 0.5, dextrose 5.6, HEPES 10; pH adjusted to 7.4) at 37° C. as previously described (Veeraraghavan R, et al. Pflugers Arch. 2015 467:2093-2105; Veeraraghavan R, et al. Elife. 2018 7; Radwanski P B, et al. Cardiovascular research. 2015 106:143-52; Radwanski P B, et al. Heart rhythm. 2010 7:1428-35; Veeraraghavan R and Poelzing S. Cardiovascular research. 2008 77:749-56.

[2] = test system: Langendorff-perfused mouse hearts
Experimental: as §1
Optical Mapping and Volume-conducted Electrocardiography (ECG): Optical voltage mapping was performed using the voltage sensitive dye, di-4-ANEPPS (15 μM; ThermoFisher Scientific, Grand Island, N.Y.), as previously described (Veeraraghavan R, et al. Pflugers Arch. 2015 467:2093-2105; Veeraraghavan R, et al. Pflugers Arch. 2016 468:1651-61; Veeraraghavan R and Poelzing S. Cardiovascular research. 2008 77:749-56), in order to quantify conduction velocity. Motion was suppressed by adding blebbistatin (10 μM) to the perfusate. Preparations were excited by 510 nm light and fluorescent signals passed through a 610 nm longpass filter (Newport, Irvine, Calif.) and recorded at 1000 frames/sec using a MiCAM Ultima-L CMOS camera (SciMedia, Costa Mesa, Calif.). Activation time was defined as the time of the maximum first derivative of the AP (Girouard S D, et al. J Cardiovasc Electrophysiol. 1996 7:1024-38), and activation times were fitted to a parabolic surface (Bayly P V, et al. IEEE Trans Biomed Eng. 1998 45:563-71). Gradient vectors evaluated along this surface were averaged along the fast axis of propagation (±15°) to quantify CV.

[3] = test system: mice; details: intraperitoneal VEGF 10 or 50 ng/kg; epinephrine 1.5 mg/kg and caffeine 120 mg/kg
Experimental: In vivo ECG: Continuous ECG recordings (PL3504 PowerLab 4/35, ADInstruments) were obtained from mice anesthetized with isoflurane (1-1.5%) as previously described (Koleske M, et al. The Journal of general physiology. 2018). Briefly, after baseline recording (5 min.), animals received either intraperitoneal VEGF (10 or 50 ng/kg; Sigma) or vehicle (PBS). After an additional 20 min, animals were injected intraperitoneally with epinephrine (1.5 mg/kg; Sigma) and caffeine (120 mg/kg; Sigma) challenge and ECG recording continued for 40 minutes. ECG recordings were analyzed using the LabChart 8 software (ADInstruments).

[4] = test system: mouse hearts; details: VEGF high dose (500 pg/ml) vs. untreated controls
Description: Primary Antibodies: The following primary antibodies were used for Western immunoblotting and fluorescence microscopy studies: connexin43 (Cx43; rabbit polyclonal; Sigma C6219); connexin40 (Cx40; rabbit polyclonal; ThermoFisher Scientific 36-4900); N-cadherin (N-cad; mouse monoclonal; BD Biosciences 610920); cardiac isoform of the voltage-gated sodium channel (Nav1.5; rabbit polyclonal; custom antibody (Veeraraghavan R, et al. Elife. 2018 7)); and the sodium channel β subunit (β1; rabbit polyclonal; custom antibody (Veeraraghavan R, et al. Elife. 2018 7))
Western Immunoblotting: Whole cell lysates of mouse hearts frozen using liquid nitrogen were prepared as previously described (Veeraraghavan R, et al. Elife. 2018 7; Koleske M, et al. The Journal of general physiology. 2018; Struckman H L, et al. Microsc Microanal. 2020:1-9). These were electrophoresed on 4-15% TGX Stain-free gels (BioRad, Hercules, Calif.) before being transferred onto a nitrocellulose membrane. The membranes were probed with primary antibodies against Cx43, Cx40, Nav1.5 and […] as well as mouse monoclonal antibody against GAPDH (loading control; Fitzgerald Industries, Acton, Mass.), followed by goat anti-rabbit and goat anti-mouse HRP-conjugated secondary antibodies (Promega, Madison, Wis.). Signals were detected by chemiluminescence using SuperSignal West Femto Extended Duration Substrate (ThermoFisher Scientific, Grand Island, N.Y.) and imaged using a Chemidoc MP imager (BioRad, Hercules, Calif.).

[5] = test system: murine atria
Experimental: Fixation for Transmission Electron Microscopy (TEM): Atria were dissected and fixed overnight in 2% glutaraldehyde at 4° C. for resin embedding and ultramicrotomy as previously described (Veeraraghavan R, et al. Pflugers Arch. 2015 467:2093-2105; Veeraraghavan R, et al. Elife. 2018 7).
Transmission Electron Microscopy (TEM): TEM images of the ID, particularly gap junctions (GJs) and mechanical junctions (MJs), were obtained at 60,000× magnification on a FEI Tecnai G2 Spirit electron microscope. Intermembrane distance at various ID sites was quantified using ImageJ (NIH), as previously described (Veeraraghavan R, et al. Pflugers Arch. 2015 467:2093-2105; Veeraraghavan R, et al. Elife. 2018 7).

[6] = test system: murine atria; details: VEGF-treated vs. control
Description: (§2) Cryopreservation: Hearts were embedded in optimal cutting temperature compound and frozen using liquid nitrogen for cryosectioning and fluorescent immunolabeling as in previous studies (Veeraraghavan R, et al. Pflugers Arch. 2015 467:2093-2105; Veeraraghavan R, et al. Pflugers Arch. 2016 468:1651-61; Veeraraghavan R, et al. Elife. 2018 7; Veeraraghavan R and Gourdie R. Molecular biology of the cell. 2016 27:3583-3590). These samples were used for light microscopy experiments as described below.
(§3) Fluorescent Immunolabeling: Immuno-fluorescent labeling of cryosections (5 μm thickness) of fresh-frozen myocardium was performed, as previously described (Veeraraghavan R, et al. Pflugers Arch. 2015 467:2093-2105; Veeraraghavan R, et al. Elife. 2018 7; Koleske M, et al. The Journal of general physiology. 2018; Radwanski P B, et al. JACC: Basic to Translational Science. 2016 1:251-266). Briefly, cryosections were fixed with paraformaldehyde (2%, 5 minutes at room temperature), permeabilized with Triton X-100 (0.2% in PBS for 15 minutes at room temperature) and treated with blocking agent (1% BSA, 0.1% triton in PBS for 2 hours at room temperature) prior to labeling with primary antibodies (overnight at 4° C.). Samples were then washed in PBS (3×5 minutes in PBS at room temperature) prior to labeling with secondary antibodies.
For confocal microscopy, samples were then labeled with goat anti-mouse and goat anti-rabbit secondary antibodies conjugated to Alexa 405, Alexa 488, Alexa 568 and Alexa 647 were used (1:8000; ThermoFisher Scientific, Grand Island, N.Y.). Simultaneous labeling with two rabbit or mouse primary antibodies was accomplished by direct fluorophore conjugation of primary antibodies (Zenon labeling kits, ThermoFisher Scientific, Grand Island, N.Y.). Samples were then washed in PBS (3×5 minutes in PBS at room temperature) and mounted in ProLong Gold (Invitrogen, Rockford, Ill.). For STimulated Emission Depletion (STED) microscopy, samples were prepared similar to confocal microscopy but labeled with Alexa 594 and Atto 647N fluorophores. […]

[7] = test system: murine atria; remark: listed apart in the source
Description: as §2, §3
For confocal microscopy, samples were then labeled with goat anti-mouse and goat anti-rabbit secondary antibodies conjugated to Alexa 405, Alexa 488, Alexa 568 and Alexa 647 were used (1:8000; ThermoFisher Scientific, Grand Island, N.Y.). Simultaneous labeling with two rabbit or mouse primary antibodies was accomplished by direct fluorophore conjugation of primary antibodies (Zenon labeling kits, ThermoFisher Scientific, Grand Island, N.Y.). Samples were then washed in PBS (3×5 minutes in PBS at room temperature) and mounted in ProLong Gold (Invitrogen, Rockford, Ill.). For STimulated Emission Depletion (STED) microscopy, samples were prepared similar to confocal microscopy but labeled with Alexa 594 and Atto 647N fluorophores. For STochastic Optical Reconstruction Microscopy (STORM), samples were labeled with Alexa 647 and Biotium CF 568 fluorophores. STORM samples were then washed in PBS (3×5 minutes in PBS at room temperature) and optically cleared using Scale U2 buffer (48 hours at 4° C.) prior to imaging (Veeraraghavan R, et al. Pflugers Arch. 2016 468:1651-61; Veeraraghavan R, et al. Elife. 2018 7; Veeraraghavan R and Gourdie R. Molecular biology of the cell. 2016 27:3583-3590).
Single Molecule Localization: STORM imaging was performed using a Vutara 352 microscope (Bruker Nano Surfaces, Middleton, Wis.) equipped with biplane 3D detection, and fast sCMOS imaging achieving 20 nm lateral and 50 nm axial resolution, as previously described (Veeraraghavan R, et al. Elife. 2018 7; Veeraraghavan R and Gourdie R. Molecular biology of the cell. 2016 27:3583-3590; Struckman H L, et al. Microsc Microanal. 2020:1-9; Bonilla I M, et al. Sci Rep. 2019 9:10179). Individual fluorophore molecules were localized with a precision of 10 nm. The two-color channels were precisely registered using localized positions of several TetraSpeck Fluorescent Microspheres (ThermoFisher Scientific, Carlsbad, Calif.) scattered throughout the field of view, with the procedure being repeated at the start of each imaging session. Protein clustering and spatial organization were quantitatively assessed from single molecule localization data using STORM-RLA, a machine learning-based cluster analysis approach, as previously described (Veeraraghavan R and Gourdie R. Molecular biology of the cell. 2016 27:3583-3590).

[8] = cited from earlier work
[9] = both low (100 pg/ml) and high (500 pg/ml) doses vs. untreated controls

Q: For VEGF, which “Levels of FITC-dextran extravasated relative to vehicle controls” value [1] is on record?
A: Its value is 201±7%.

Q: What about the P wave duration ([2]; 30 minutes of VEGF perfusion (100 and 500 pg/ml) vs. untreated control) of the same molecule?
A: The P wave duration was “significant P-wave prolongation”.

Q: And the “Incidence of burst pacing-induced atrial arrhythmias” value ([2]; VEGF 100 and 500 pg/ml, 30 minutes, 10 s burst pacing at 50, 40, 30 ms)?
A: Its value is “increased the incidence of burst pacing-induced atrial arrhythmias in dose-dependent fashion”.

Q: What about the Atrial conduction velocity ([2]; VEGF 100 and 500 pg/ml, 30 minutes, paced at cycle length 100 ms) of the same molecule?
A: The Atrial conduction velocity was “significantly and dose-dependently decreased”.

Q: What about the “Atrial arrhythmias in vivo after caffeine and epinephrine challenge” value [3] of the same molecule?
A: Its value is “elicited atrial arrhythmias in VEGF-treated mice but not in untreated controls”.

Q: And the “Expression level of Cx43” value [4]?
A: Its value is “no significant difference”.

Q: And the “Expression level of N-cad” value [4]?
A: Its value is “no significant difference”.

Q: And the “Expression level of Nav1.5” value [4]?
A: Its value is “no significant difference”.

Q: What about the “Expression level of β1” value [4] of the same molecule?
A: The value was “no significant difference”.

Q: What about the “Expression of Cx40” value [4] of the same molecule?
A: The value was “slightly elevated”.

Q: And the “Intermembrane distance at GJ-adjacent sites” value [5, 9]?
A: Its value is “significantly increased”.

Q: What about the “Intermembrane distance at MJ-adjacent sites” value [5, 9] of the same molecule?
A: Its value is “significantly increased”.

Q: What about the “Dose dependence of ID swelling” value ([5]; low vs. high dose of VEGF) of the same molecule?
A: The value was “dose-dependent fashion at GJ-adjacent perinexi but not near MJ”.

Q: And the “Nav1.5 enrichment ratio near Cx43 (STED)” value ([6]; <100 nm from Cx43)?
A: The value was “significantly decreased”.

Q: What about the “β1 enrichment ratio near Cx43 (STED)” value ([6]; <100 nm from Cx43) of the same molecule?
A: Its value is “significantly decreased”.

Q: And the “Nav1.5 enrichment ratio at N-cad-rich sites (STED)” value [6]?
A: The value was “trended towards a decrease”.

Q: And the “β1 density at N-cad-rich plicate ID sites” value ([7]; VEGF treated hearts vs. control)?
A: Its value is “without significant changes”.

Q: What about the “Nav1.5 enrichment ratio at N-cad-rich plicate ID sites” value ([7]; VEGF treated hearts, control 6.5±0.4) of the same molecule?
A: Its value is 4.6±0.4.

Q: What about the “Nav1.5 enrichment ratio at Cx43-adjacent perinexal sites” value ([7]; VEGF treated hearts, control 10.5±0.3) of the same molecule?
A: The value was 6.9±0.8.

Q: What about the “β1 enrichment ratio at Cx43-adjacent perinexal sites” value ([7]; VEGF treated hearts, control 10.7±1.9) of the same molecule?
A: Its value is 5.4±0.7.

Q: What about the “% of ID-localized Nav1.5 signal at N-cad-rich plicate ID sites” value ([7]; VEGF treated hearts, control 35±2%) of the same molecule?
A: The value was 26±3%.

Q: What about the “% of ID-localized Nav1.5 signal at Cx43-adjacent perinexal sites” value ([7]; VEGF treated hearts, control 59±2%) of the same molecule?
A: Its value is 32±3%.

Q: And the “% of ID-localized β1 signal at Cx43-adjacent perinexal sites” value ([7]; VEGF treated hearts, control 69±4%)?
A: The value was 49±3%.

Q: With O[C@H](c1cc(C(F)(F)F)nc2c(C(F)(F)F)cccc12)[C@@H]1CCCCN1 (relative stereo) [Mefloquine hydrochloride, (R*,S*)-(±)-alpha-2-piperidinyl-2,8-bis(trifluoromethyl)-4-quinolinemethanol] as the molecule, how does the Solubility in ethanol ([8]; ethanol) read?
A: Its Solubility in ethanol is “soluble”.

Q: And the Solubility in water ([8]; water)?
A: Its Solubility in water is “slightly soluble”.
